{"source": "patent US8524696B2", "about": "“Water-soluble compositions of bioactive lipophilic compounds” (priority 1999, dated 2013)", "key": {"[1]": {"test_system": "Human teratocarcinoma NT2", "assay": "Protection against hypoxia, cell viability by trypan blue exclusion", "format": "cell-based", "details": "10 mg/ml as PTS formulation, 3 days; 17.5 hours anaerobic, glucose-free", "method": "The flasks were sealed in an anaerobic chamber containing Gas Pak Plus gas generator envelopes and were incubated in the anaerobic conditions at 37° C. for 17.5 hours in glucose-free medium. Following the hypoxic treatment the cells were placed again in the complete medium (with and without CoQ10 or vitamin E) and were analysed either immediately (time 0) or were cultured for the additional 24 hr under the normoxic conditions. Cell viability was measured by trypan blue exclusion assay. […]"}, "[2]": {"test_system": "spontaneously hypertensive rats (SHR)", "assay": "Ischemia/reperfusion, middle cerebral artery occlusion model (MCAO), TTC staining", "format": "in vivo, rat", "details": "CoQ10 treatment postischemically"}, "[3]": {"test_system": "red blood cells (RBC) isolated from Balb/c mice", "assay": "In vitro haemolysis of red blood cells (RBC)", "format": "cell-based, mouse", "details": "0.3% Triton X-100, 1 h at 37° C., taken as 100% haemolysis (Table 17 reference column)"}, "[4]": {"assay": "Systemic release of vitamin E following administration of PTS (plasma alpha-tocopherol by HPLC)", "format": "in vivo, Sprague Dawley male rats", "details": "for Concentration of α-tocopherol in rat blood plasma: PTS 50 mg/kg", "method": "PTS, dissolved in water (50 mg/ml), was administered to Sprague Dawley male rats (300-350 g) either orally or intravenously at a dose of 50 mg/kg body weight. Heparinized blood samples were collected at 0, 3, 8 and 24 hr following PTS administration. Blood plasma samples were obtained and analyzed for the content of alpha-tocopherol using an HPLC method using a Supercosil DB column and a mobile phase of ethanol:methanol (80:20 v/v) at a flow rate of 1 ml/min. Beckman System Karat software was used for data quantification."}, "[5]": {"assay": "Storage stability of water-soluble compositions and their aqueous solutions", "format": "physicochemical", "details": "in water or saline; refrigerated or frozen as stated"}}, "data": [{"compound": "Cc1c(C)c2c(c(C)c1O)CC[C@@](C)(CCC[C@H](C)CCC[C@H](C)CCCC(C)C)O2", "note": "[Vitamin E, α-(+)-tocopherol]", "values": [{"measurement": "percentage of death during the 24 hr recovery period from hypoxia", "setting": "[1]", "value": "reduced by half"}]}, {"compound": "COC1=C(OC)C(=O)C(C/C=C(\\C)CC/C=C(\\C)CC/C=C(\\C)CC/C=C(\\C)CC/C=C(\\C)CC/C=C(\\C)CC/C=C(\\C)CC/C=C(\\C)CC/C=C(\\C)CCC=C(C)C)=C(C)C1=O", "note": "[CoQ10, Coenzyme Q10]", "values": [{"measurement": "percentage of death during the 24 hr recovery period from hypoxia", "setting": "[1]", "value": "reduced by half"}, {"measurement": "protective effects against ischemia-induced tissue damage", "setting": "[2]", "value": "clearly evident"}]}, {"compound": "Triton X-100", "values": [{"measurement": "Percentage of lysed Cells", "setting": "[3]", "value": 100.0, "unit": "%"}]}, {"compound": "polyoxyethanyl-α-tocopheryl sebacate [PTS]", "values": [{"measurement": "Concentration of α-tocopherol in rat blood plasma", "setting": "[4]; Intravenous administration, 3 hours", "value": "18.48 ± 2.40 (n = 3) μg/ml"}, {"measurement": "Concentration of α-tocopherol in rat blood plasma", "setting": "[4]; Intravenous administration, 8 hours", "value": "11.19 ± 3.11 (n = 3) μg/ml"}, {"measurement": "Concentration of α-tocopherol in rat blood plasma", "setting": "[4]; Intravenous administration, 24 hours", "value": "10.59 ± 1.48 (n = 3) μg/ml"}, {"measurement": "Concentration of α-tocopherol in rat blood plasma", "setting": "[4]; Oral administration, 3 hours", "value": "8.65 ± 1.40 (n = 3) μg/ml"}, {"measurement": "Concentration of α-tocopherol in rat blood plasma", "setting": "[4]; Oral administration, 8 hours", "value": "9.33 ± 2.10 (n = 3) μg/ml"}, {"measurement": "Concentration of α-tocopherol in rat blood plasma", "setting": "[4]; Oral administration, 24 hours", "value": "8.31 ± 0.60 (n = 3) μg/ml"}, {"measurement": "plasma content of α-tocopherol after PTS (systemic conversion to vitamin E)", "setting": "[4]; oral or intravenous PTS, rat", "value": "Elevated"}]}, {"compound": "CC1=C(/C=C/C(C)=C/C=C/C(C)=C/C=C/C=C(C)/C=C/C=C(C)/C=C/C2=C(C)C(=O)[C@@H](O)CC2(C)C)C(C)(C)C[C@H](O)C1=O", "note": "[Astaxanthin]", "values": [{"measurement": "stability of aqueous solutions", "setting": "[5]", "value": "remained stable for several months"}]}]}
